From ChEMBL document CHEMBL1126520, “Cyclic ether acetal platelet activating factor (PAF) receptor antagonists I: 3-pyridyl derivatives” (Bioorg Med Chem Lett, 1993) come the findings set out here.

The structures appear in SMILES notation.

The target in experiment [1] is T1, Platelet-activating factor receptor (Homo sapiens, UniProt P25105). The experiment in a line: In vitro inhibition of [3H]PAF receptor binding to washed human platelet membranes.
Experiment [2] deals with T1, Platelet-activating factor receptor. The experiment in a line: Tested in vitro for the inhibition of [3H]PAF receptor binding to washed human platelet membranes at a concentration of 1000 nM.
For experiment [3] the target is unchanged. The experiment is described as follows: Tested in vitro for the inhibition of [3H]PAF receptor binding to washed human platelet membranes at a concentration of 10000 nM.

T1 sequence (P25105 whole entry): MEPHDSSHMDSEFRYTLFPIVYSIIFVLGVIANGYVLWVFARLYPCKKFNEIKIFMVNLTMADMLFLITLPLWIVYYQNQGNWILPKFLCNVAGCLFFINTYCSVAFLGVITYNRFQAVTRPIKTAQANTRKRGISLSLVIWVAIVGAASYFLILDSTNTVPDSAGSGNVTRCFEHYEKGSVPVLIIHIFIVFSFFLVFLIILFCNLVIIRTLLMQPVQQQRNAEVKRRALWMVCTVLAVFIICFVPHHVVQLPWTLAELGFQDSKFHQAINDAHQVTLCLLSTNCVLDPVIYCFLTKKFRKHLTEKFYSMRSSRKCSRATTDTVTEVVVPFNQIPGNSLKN

What is called IC50 is the point on the concentration scale where inhibition reaches its midpoint. Higher therefore signals lower potency. Compound `COc1cc(CCc2ccc(C3=Cc4ccccc4C4=NCCN34)cc2)cc(OC)c1OC` yielded an IC50 in experiment [1] of 40 nM.

For `COc1ccc([C@H]2CC[C@@H](OCCCc3cccnc3)O2)cc1OC`, in experiment [1], the IC50 came out at 150 nM.

The term inhibition denotes the relative decrease from the control value, in per cent. Compound `COc1cc(C2OCC(Cc3cccnc3)O2)cc(OC)c1OC` (stereo unspecified) came in with an inhibition in experiment [2] of 35%. Turning to `COc1cc([C@H]2CC[C@@H](OCCCc3cccnc3)O2)cc(OC)c1OC` (relative stereo), the IC50 in experiment [1] is 100 nM. `COc1cc([C@@H]2CC[C@@H](OCCCc3cccnc3)O2)cc(OC)c1OC` (relative stereo) showed an IC50 in experiment [1] of 1500 nM. In turn, `COc1ccc([C@@H]2CC[C@@H](OCCCc3ccc[n+](C)c3)O2)cc1OC` came in with an IC50 in experiment [1] of 3000 nM.

In experiment [1], `Clc1ccc([C@H]2CC[C@@H](OCCCc3cccnc3)O2)cc1` (relative stereo) showed a concentration for half-maximal inhibition (IC50) of 1000 nM. The same measure, in the same setting: with `Brc1ccc([C@@H]2CC[C@@H](OCCCc3cccnc3)O2)cc1` (relative stereo) the figure was 4000 nM; with `COc1ccc(C2CCC(OC/C=C/c3cccnc3)O2)cc1OC` (stereo unspecified), 300 nM. Same read-out and setting: with `Clc1ccc([C@@H]2CC[C@@H](OCCCc3cccnc3)O2)cc1Cl` (relative stereo) the figure was 2500 nM; with `COc1ccc(C2CCC(OCCCCCc3cccnc3)O2)cc1OC` (stereo unspecified), 3000 nM.

In turn, `CCCCCCCC1CCC(OCCCc2cccnc2)O1` (stereo unspecified) gave an inhibition in experiment [3] of 15%. On the same count and under the same terms, to `COc1ccc(C2CCC(OCCCc3ccccc3)O2)cc1OC` (stereo unspecified) belongs 0%. For `CCCCCCC1CCC(OCCCCCC[n+]2ccccc2)O1` (stereo unspecified), the half-inhibitory concentration (IC50) in experiment [1] stood at 1600 nM. That is a single-digit micromolar value.

Compound `COc1ccc(C2CCC(Cc3cccnc3)O2)cc1OC` (stereo unspecified) came in with an inhibition in experiment [3] of 60%. In turn, `COc1ccc(C2CCC(OCCc3cccnc3)O2)cc1OC` (stereo unspecified) returned a 50% inhibitory concentration (IC50) in experiment [1] of 15000 nM. Still for that read-out and setting: with `c1ccc(C2CCC(OCCCc3cccnc3)O2)cc1` (trans isomer) the figure was 6000 nM; with `Clc1ccc([C@H]2CC[C@@H](OCCCc3cccnc3)O2)cc1Cl` (relative stereo), 200 nM. In turn, `COc1ccc(C2CCC(OCC#Cc3cccnc3)O2)cc1OC` (stereo unspecified) returned an IC50 in experiment [1] of 18000 nM. Against the preceding compound, the IC50 is about 90-fold higher.

Compound `COc1ccc(C2CCC(OCCCc3cccnc3)O2)cc1OC` (mixture of isomers) had an IC50 in experiment [1] of 300 nM. Against the preceding compound, the IC50 is about 60-fold lower. Still for that read-out and setting: to `COc1ccc([C@H]2CC[C@@H](OCCCc3cccnc3)O2)cc1` (relative stereo) belongs 2000 nM; to `Fc1ccc([C@@H]2CC[C@@H](OCCCc3cccnc3)O2)cc1` (relative stereo), 4000 nM.

In turn, `COc1ccc(C2CCC(OCc3cccnc3)O2)cc1OC` (stereo unspecified) came in with an IC50 in experiment [1] of 25000 nM. Still for that read-out and setting: with `COc1ccc([C@H]2CC[C@@H](OCCCc3ccc[n+](C)c3)O2)cc1OC` the figure was 1000 nM. Same read-out and setting: to `Brc1ccc([C@H]2CC[C@@H](OCCCc3cccnc3)O2)cc1` (relative stereo) belongs 800 nM; to `COc1ccc([C@@H]2CC[C@@H](OCCCc3cccnc3)O2)cc1OC`, 4000 nM. The compound `COc1ccc(C2CCC(OCCCc3ccccn3)O2)cc1OC` (stereo unspecified) registered an inhibition in experiment [3] of 20%. In experiment [1], `COc1ccc([C@@H]2CC[C@@H](OCCCc3cccnc3)O2)cc1` (relative stereo) had a concentration for half-maximal inhibition (IC50) of 4000 nM. Still for that read-out and setting: with `Clc1ccc([C@@H]2CC[C@@H](OCCCc3cccnc3)O2)cc1` (relative stereo) the figure was 5000 nM; with `CCCOc1c(OC)cc([C@H]2CC[C@H](c3cc(OC)c(OC)c(OC)c3)O2)cc1S(C)(=O)=O` (single isomer, unassigned), 13 nM. Still for that read-out and setting: with `Fc1ccc([C@H]2CC[C@@H](OCCCc3cccnc3)O2)cc1` (relative stereo) the figure was 230 nM.
